Legend:
[1] = test system: yqxM operon; format: cell-based, B. subtilis strain Marburg
[2] = test system: B. subtilis strain FB17; experiment: capillary chemotaxis assay; format: cell-based, Bacillus subtilis
Procedure: (§1) To evaluate MA's ability to selectively recruit FB17, microbial motility at varying MA doses was measured by capillary chemotaxis assay (Gordillo et al., 2007). […] The concentration range of 5 to 30 μM falls within the biological titers of MA secreted in planta through the root exudates. […] To establish whether L-MA specifically chemoattracts FB17, other beneficial bacteria, such as Pseudomonas fluorescens strain Pf01 and Azospirillum brasilense strain Cd, and pathogenic bacteria, such as Pst DC3000, Erwinia carotovora strain AH2, Agrobacterium rhizogenes strain Arqua-1, and Agrobacterium tumefaciens strain LBA4404, were assayed for MA. […] Bacterial strains used in the chemotactic assay included B. subtilis strain FB17, A. tumefaciens strain LBA4404, E. carotovora strain AH2, A. rhizogenes strain Arqua-1, A. brasilense strain Cd, P. fluorescens (Pf01), and P. syringae (Pst DC3000). Data are the average of six replicates from two experiments conducted separately.

[3] = test system: Pst DC3000; experiment: capillary chemotaxis assay; format: cell-based, Pseudomonas syringae pv tomato
Procedure: as §1

[4] = test system: Erwinia carotovora strain AH2; experiment: capillary chemotaxis assay; format: cell-based
Procedure: as §1

[5] = test system: Agrobacterium rhizogenes strain Arqua-1; experiment: capillary chemotaxis assay; format: cell-based
Procedure: as §1

[6] = test system: Pseudomonas fluorescens strain Pf01; experiment: capillary chemotaxis assay; format: cell-based
Procedure: as §1

[7] = test system: Agrobacterium tumefaciens strain LBA4404; experiment: capillary chemotaxis assay; format: cell-based
Procedure: as §1

[8] = test system: Azospirillum brasilense strain Cd; experiment: capillary chemotaxis assay; format: cell-based
Procedure: as §1

[9] = test system: PR1::GUS; experiment: PR1::GUS reporter expression in Arabidopsis
[10] = test system: DC3000; experiment: acetoin treatment of Arabidopsis plants leaf inoculated with DC3000
[11] = test system: PDF1.2 and PR1 transcripts; experiment: RT-PCR of defense genes PDF1.2 and PR1; format: in vivo, Arabidopsis thaliana; conditions: leaves, compared to mock inoculated plants
From the text: To further confirm that a FB17 component, acetoin, mediates this response we analyzed the defense genes PDF1.2 and Jin1 whose expression depends on functional ET and JA pathways.

[12] = test system: free SA; experiment: free SA levels in Arabidopsis leaves; conditions: compared to control untreated plants

## O=C(O)C[C@@H](O)C(=O)O [D-MA]
[1]
  expression of biofilm operon yqxM (β-galactosidase activity): did not stimulate β-galactosidase activity
[2]; 30 μM
  chemotactic efficacy compared to the natural L-MA form: lower efficacies
  chemotaxis compared to water control: significantly higher than the water control

## O=C(O)C[C@H](O)C(=O)O [L-MA, L-malic acid]
[1]
  expression of biofilm operon yqxM (β-galactosidase activity): elevated expression
  β-galactosidase activity level and kinetics compared to root exudates: activity level was lower and the kinetics response was abbreviated
[3]
  motility toward L-MA compared to FB17: none of the bacteria shows any significant motility
[4]
  motility toward L-MA compared to FB17: none of the bacteria shows any significant motility
[5]
  motility toward L-MA compared to FB17: none of the bacteria shows any significant motility
[6]
  motility toward L-MA compared to FB17: none of the bacteria shows any significant motility
[7]
  motility toward L-MA compared to FB17: none of the bacteria shows any significant motility
[8]
  motility toward L-MA compared to FB17: none of the bacteria shows any significant motility
[2]; dose range of 5 to 30 μM
  chemotactic behavior of FB17: positive chemotactic behavior in a concentration-dependent manner

## O=C(O)c1ccccc1O [SA]
[9]; leaves sprayed
  PR1 expression: higher PR1 expression
[9]; root treated plants
  PR1 expression: much less PR1 expression

## CC(=O)C(C)O (stereo not drawn) [acetoin, 3-hydroxy-2-butanone]
[10]; Arabidopsis, ratio of leaves with symptoms to leaves inoculated, vs untreated
  percent disease incidence: significantly lower
[10]; Arabidopsis, volatile treatment, 5 days post-infection, compared to untreated controls
  disease symptoms: significantly lower disease symptoms
[10]; Arabidopsis, vs untreated, P<0.05
  DC3000 CFUs from leaves: lower DC3000 CFUs
[10]; SA deficient NahG plants
  protection from DC3000 infection: failed to protect
[10]; ethylene mutant etr1-3 plants
  protection from DC3000 infection: failed to protect
[10]; jasmonic acid mutant Jar1-1
  DC3000 multiplication in terms of CFUs: significantly reduction in DC3000 multiplication
[10]; wild type Col-0
  DC3000 multiplication in terms of CFUs: significantly reduction in DC3000 multiplication
[11]
  PDF1.2 transcripts: more
  PR1 transcripts: more
[12]
  free SA levels: enhances the total free SA level
[9]; treated or root inoculated plants compared to untreated plants
  PR1::GUS expression: enhanced PR1 expression

## O=C(O)C(=O)O [oxalic acid, reference compound]
[1]
  expression of biofilm operon yqxM (β-galactosidase activity): did not stimulate β-galactosidase activity
[2]; 30 μM
  chemotactic efficacy compared to the natural L-MA form: lower efficacies
